Reference: PubChem BioAssay (NCI)
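Where inhibition never reached the appropriate level, the endpoint shown equals the highest concentration tested. Otherwise, values were interpolated linearly from a five-concentration, 48-hour dose response in 96-well plates. TGI marks complete inhibition of growth.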

Columns and labels:
Assay in all cases: DTP human tumour cell line panel, 48 h
HCT-15 colon = test system: HCT-15 colon
A498 renal = test system: A498 renal
LXFL 529 NSCLC = test system: LXFL 529 NSCLC
KM20L2 colon = test system: KM20L2 colon
DLD-1 colon = test system: DLD-1 colon
OVCAR-8 ovarian = test system: OVCAR-8 ovarian
OVCAR-3 ovarian = test system: OVCAR-3 ovarian
OVCAR-5 ovarian = test system: OVCAR-5 ovarian
ACHN renal = test system: ACHN renal
XF 498 CNS = test system: XF 498 CNS
IGROV1 ovarian = test system: IGROV1 ovarian
DMS 273 small cell lung = test system: DMS 273 small cell lung
DMS 114 small cell lung = test system: DMS 114 small cell lung
SNB-19 CNS = test system: SNB-19 CNS
CCRF-CEM leukemia = test system: CCRF-CEM leukemia
786-0 renal = test system: 786-0 renal
NCI-H460 lung = test system: NCI-H460 lung
SF-295 CNS = test system: SF-295 CNS
U251 CNS = test system: U251 CNS
SNB-78 CNS = test system: SNB-78 CNS
HOP-92 NSCLC = test system: HOP-92 NSCLC
OVCAR-4 ovarian = test system: OVCAR-4 ovarian
SK-MEL-28 melanoma = test system: SK-MEL-28 melanoma
NCI-H23 lung = test system: NCI-H23 lung
SF-268 CNS = test system: SF-268 CNS
HOP-62 NSCLC = test system: HOP-62 NSCLC
UACC-257 melanoma = test system: UACC-257 melanoma
MALME-3M melanoma = test system: MALME-3M melanoma
RXF 393 renal = test system: RXF 393 renal
MOLT-4 leukemia = test system: MOLT-4 leukemia
SN12C renal = test system: SN12C renal
SK-OV-3 ovarian = test system: SK-OV-3 ovarian
A549 NSCLC = test system: A549 NSCLC
COLO 205 colon = test system: COLO 205 colon
SR leukemia = test system: SR leukemia
LOX IMVI melanoma = test system: LOX IMVI melanoma
HCT-116 colon = test system: HCT-116 colon
SW-620 colon = test system: SW-620 colon
KM12 colon = test system: KM12 colon
RPMI-8226 leukemia = test system: RPMI-8226 leukemia
SF-539 CNS = test system: SF-539 CNS
SK-MEL-5 melanoma = test system: SK-MEL-5 melanoma
CAKI-1 renal = test system: CAKI-1 renal
NCI-H226 lung = test system: NCI-H226 lung
HL-60(TB) leukemia = test system: HL-60(TB) leukemia
TK-10 renal = test system: TK-10 renal
RXF-631 renal = test system: RXF-631 renal
M14 melanoma = test system: M14 melanoma
UACC-62 melanoma = test system: UACC-62 melanoma
M19-MEL melanoma = test system: M19-MEL melanoma
K-562 leukemia = test system: K-562 leukemia
HT29 colon = test system: HT29 colon
HOP-18 NSCLC = test system: HOP-18 NSCLC
UO-31 renal = test system: UO-31 renal
SNB-75 CNS = test system: SNB-75 CNS
HCC-2998 colon = test system: HCC-2998 colon
EKVX NSCLC = test system: EKVX NSCLC
NCI-H522 lung = test system: NCI-H522 lung
SK-MEL-2 melanoma = test system: SK-MEL-2 melanoma

## COC(=O)C1=C(O)c2cc3c(cc2[C@H](c2cc(OC)c(OC)c(OC)c2)C1)OCO3
HCT-15 colon
  TGI: > 100 µM
A498 renal
  TGI: 61.7 µM
LXFL 529 NSCLC
  TGI: > 100 µM
KM20L2 colon
  TGI: > 100 µM
DLD-1 colon
  TGI: > 100 µM
OVCAR-8 ovarian
  TGI: > 100 µM
OVCAR-3 ovarian
  TGI: 55.7 µM
OVCAR-5 ovarian
  TGI: > 100 µM
ACHN renal
  TGI: > 100 µM
XF 498 CNS
  TGI: > 100 µM
IGROV1 ovarian
  TGI: 89.4 µM
DMS 273 small cell lung
  TGI: > 100 µM
DMS 114 small cell lung
  TGI: > 100 µM
SNB-19 CNS
  TGI: > 100 µM
CCRF-CEM leukemia
  TGI: > 100 µM
786-0 renal
  TGI: > 100 µM
NCI-H460 lung
  TGI: > 100 µM
SF-295 CNS
  TGI: > 100 µM
U251 CNS
  TGI: > 100 µM
SNB-78 CNS
  TGI: > 100 µM
HOP-92 NSCLC
  TGI: > 100 µM
OVCAR-4 ovarian
  TGI: > 100 µM
SK-MEL-28 melanoma
  TGI: > 100 µM
NCI-H23 lung
  TGI: > 100 µM
SF-268 CNS
  TGI: > 100 µM
HOP-62 NSCLC
  TGI: > 100 µM
UACC-257 melanoma
  TGI: 95.1 µM
MALME-3M melanoma
  TGI: > 100 µM
RXF 393 renal
  TGI: > 100 µM
MOLT-4 leukemia
  TGI: 89.6 µM
SN12C renal
  TGI: > 100 µM
SK-OV-3 ovarian
  TGI: > 100 µM
A549 NSCLC
  TGI: > 100 µM
COLO 205 colon
  TGI: 34.7 µM
SR leukemia
  TGI: > 100 µM
LOX IMVI melanoma
  TGI: > 100 µM
HCT-116 colon
  TGI: > 100 µM
SW-620 colon
  TGI: > 100 µM
KM12 colon
  TGI: 54.3 µM
RPMI-8226 leukemia
  TGI: > 100 µM
SF-539 CNS
  TGI: > 100 µM
SK-MEL-5 melanoma
  TGI: 61.1 µM
CAKI-1 renal
  TGI: > 100 µM
NCI-H226 lung
  TGI: > 100 µM
HL-60(TB) leukemia
  TGI: 67.6 µM
TK-10 renal
  TGI: > 100 µM
RXF-631 renal
  TGI: > 100 µM
M14 melanoma
  TGI: > 100 µM
UACC-62 melanoma
  TGI: 27.9 µM
M19-MEL melanoma
  TGI: 10.1 µM
K-562 leukemia
  TGI: > 100 µM
HT29 colon
  TGI: > 100 µM
HOP-18 NSCLC
  TGI: > 100 µM
UO-31 renal
  TGI: 36.3 µM
SNB-75 CNS
  TGI: > 100 µM

## CC(C)=CCC/C(C)=C/CC/C(C)=C/C1CCC(=O)C1(C)C (stereo not drawn)
HCT-15 colon
  TGI: 28.9 µM
A498 renal
  TGI: 36.9 µM
LXFL 529 NSCLC
  TGI: 31.1 µM
KM20L2 colon
  TGI: 31.9 µM
DLD-1 colon
  TGI: 32.6 µM
OVCAR-8 ovarian
  TGI: 38.7 µM
OVCAR-3 ovarian
  TGI: 32.5 µM
OVCAR-5 ovarian
  TGI: 39.7 µM
ACHN renal
  TGI: 30.1 µM
XF 498 CNS
  TGI: 32.3 µM
IGROV1 ovarian
  TGI: 39.4 µM
DMS 114 small cell lung
  TGI: 28.2 µM
SNB-19 CNS
  TGI: 65.2 µM
CCRF-CEM leukemia
  TGI: 35.4 µM
786-0 renal
  TGI: 32.2 µM
NCI-H460 lung
  TGI: 32.6 µM
SF-295 CNS
  TGI: 33 µM
U251 CNS
  TGI: 32.7 µM
SNB-78 CNS
  TGI: 53.4 µM
HOP-92 NSCLC
  TGI: 51.7 µM
OVCAR-4 ovarian
  TGI: 66 µM
SK-MEL-28 melanoma
  TGI: 54 µM
NCI-H23 lung
  TGI: 41.1 µM
SF-268 CNS
  TGI: 33.6 µM
HOP-62 NSCLC
  TGI: 69.6 µM
UACC-257 melanoma
  TGI: 42.7 µM
MALME-3M melanoma
  TGI: 37.5 µM
HCC-2998 colon
  TGI: 38.2 µM
RXF 393 renal
  TGI: 37.5 µM
MOLT-4 leukemia
  TGI: 41 µM
EKVX NSCLC
  TGI: 42.4 µM
SN12C renal
  TGI: 30.9 µM
SK-OV-3 ovarian
  TGI: 81 µM
A549 NSCLC
  TGI: 77.6 µM
COLO 205 colon
  TGI: 30.8 µM
SR leukemia
  TGI: 40.8 µM
LOX IMVI melanoma
  TGI: 28.9 µM
HCT-116 colon
  TGI: 30.7 µM
KM12 colon
  TGI: 32.7 µM
RPMI-8226 leukemia
  TGI: 42.4 µM
SF-539 CNS
  TGI: 38.9 µM
SK-MEL-5 melanoma
  TGI: 29.3 µM
CAKI-1 renal
  TGI: 46.8 µM
NCI-H226 lung
  TGI: 29.4 µM
NCI-H522 lung
  TGI: 29 µM
HL-60(TB) leukemia
  TGI: 27 µM
TK-10 renal
  TGI: > 100 µM
RXF-631 renal
  TGI: > 100 µM
SK-MEL-2 melanoma
  TGI: 34.1 µM
M14 melanoma
  TGI: 42.5 µM
UACC-62 melanoma
  TGI: 50.6 µM
M19-MEL melanoma
  TGI: 38 µM
K-562 leukemia
  TGI: 38 µM
HT29 colon
  TGI: 32.4 µM
HOP-18 NSCLC
  TGI: 63.1 µM
UO-31 renal
  TGI: 31.7 µM
SNB-75 CNS
  TGI: 81.9 µM

## Cn1cc2ccccc2c1-c1nc(F)nc(Nc2ccc(N)cc2)n1
HCT-15 colon
  TGI: 26.3 µM
A498 renal
  TGI: 21.6 µM
LXFL 529 NSCLC
  TGI: 30.9 µM
KM20L2 colon
  TGI: 47.4 µM
DLD-1 colon
  TGI: 34.9 µM
OVCAR-8 ovarian
  TGI: 46.7 µM
OVCAR-3 ovarian
  TGI: 48.3 µM
OVCAR-5 ovarian
  TGI: 61.9 µM
ACHN renal
  TGI: 68 µM
XF 498 CNS
  TGI: 30 µM
IGROV1 ovarian
  TGI: 28.5 µM
DMS 273 small cell lung
  TGI: 25.6 µM
DMS 114 small cell lung
  TGI: 38.1 µM
SNB-19 CNS
  TGI: 95.5 µM
CCRF-CEM leukemia
  TGI: 67.5 µM
786-0 renal
  TGI: 64 µM
NCI-H460 lung
  TGI: 31.5 µM
SF-295 CNS
  TGI: 50.4 µM
U251 CNS
  TGI: 26.4 µM
SNB-78 CNS
  TGI: 77.7 µM
HOP-92 NSCLC
  TGI: 55.6 µM
OVCAR-4 ovarian
  TGI: 64.3 µM
SK-MEL-28 melanoma
  TGI: 30.6 µM
NCI-H23 lung
  TGI: 29.3 µM
SF-268 CNS
  TGI: 56.3 µM
HOP-62 NSCLC
  TGI: 55.8 µM
UACC-257 melanoma
  TGI: 37.6 µM
MALME-3M melanoma
  TGI: 39.2 µM
HCC-2998 colon
  TGI: 32.1 µM
RXF 393 renal
  TGI: 45 µM
MOLT-4 leukemia
  TGI: 65.5 µM
EKVX NSCLC
  TGI: 60.4 µM
SN12C renal
  TGI: 47.4 µM
SK-OV-3 ovarian
  TGI: 33.8 µM
A549 NSCLC
  TGI: 65.3 µM
SR leukemia
  TGI: 72.4 µM
LOX IMVI melanoma
  TGI: 27 µM
HCT-116 colon
  TGI: 35.1 µM
SW-620 colon
  TGI: 35 µM
KM12 colon
  TGI: 41.9 µM
RPMI-8226 leukemia
  TGI: 76.5 µM
SF-539 CNS
  TGI: 35.1 µM
SK-MEL-5 melanoma
  TGI: 25 µM
CAKI-1 renal
  TGI: 45 µM
NCI-H226 lung
  TGI: 32.7 µM
NCI-H522 lung
  TGI: 28.9 µM
HL-60(TB) leukemia
  TGI: > 100 µM
TK-10 renal
  TGI: > 100 µM
RXF-631 renal
  TGI: 38.2 µM
SK-MEL-2 melanoma
  TGI: 30.1 µM
M14 melanoma
  TGI: 27.3 µM
M19-MEL melanoma
  TGI: 25.2 µM
K-562 leukemia
  TGI: > 100 µM
HT29 colon
  TGI: 57.3 µM
UO-31 renal
  TGI: 53.8 µM
SNB-75 CNS
  TGI: 42.9 µM
